Structure (SMILES)	melting point [°C]
CC(C)(C)OC(=O)N1CCN(c2ccc(NC(=O)Nc3ccccc3Oc3ccccc3)cc2)CC1 [Example 7, 4-{4-[3-(2-phenoxy-phenyl)-ureido]-phenyl}-piperazine-1-carboxylic acid tert-butyl ester]	186 to 187
COc1ccccc1NC(=O)Nc1ccc(N2CCN(C(=O)OC(C)(C)C)CC2)cc1 [Example 13, 4-{4-[3-(2-methoxy-phenyl)-ureido]-phenyl}-piperazine-1-carboxylic acid tert-butyl ester]	184
CCC(C)c1ccccc1NC(=O)Nc1ccc(N2CCN(C(=O)OC(C)(C)C)CC2)cc1 (stereo not drawn) [Example 21, 4-{4-[3-(2-sec-butyl-phenyl)-ureido]-phenyl}-piperazine-1-carboxylic acid tert-butyl ester]	177
CCCc1ccccc1NC(=O)Nc1ccc(N2CCN(C(=O)OC(C)(C)C)CC2)cc1 [Example 18, 4-{4-[3-(2-propyl-phenyl)-ureido]-phenyl}-piperazine-1-carboxylic acid tert-butyl ester]	177 to 181
CCOP(=O)(Cc1ccc(NC(=O)Nc2ccc(N3CCN(C(=O)Nc4c(C)cccc4Cl)CC3)cc2)cc1)OCC	218 to 220
CCOc1ccc(NC(=O)Nc2ccc(N3CCN(C(=O)OC(C)(C)C)CC3)cc2)cc1 [Example 23, 4-{4-[3-(4-ethoxy-phenyl)-ureido]-phenyl}-piperazine-1-carboxylic acid tert-butyl ester]	198 to 200
CN(C)c1ccc(NC(=O)Nc2ccc(N3CCN(C(=O)OC(C)(C)C)CC3)cc2)cc1 [Example 20, 4-{4-[3-(4-dimethylamino-phenyl)-ureido]-phenyl}-piperazine-1-carboxylic acid tert-butyl ester]	207
CC(C)(C)OC(=O)N1CCN(c2ccc(NC(=O)Nc3cc(Cl)ccc3N)cc2)CC1 [Example 11, 4-{4-[3-(2-amino-5-chloro-phenyl)-ureido]-phenyl}-piperazine-1-carboxylic acid tert-butyl ester]	187 to 189
COc1ccc(C)cc1NC(=O)Nc1ccc(N2CCN(C(=O)OC(C)(C)C)CC2)cc1 [Example 2, 4-{4-[3-(2-methoxy-5-methyl-phenyl)-ureido]-phenyl}-piperazine-1-carboxylic acid tert-butyl ester]	157
CC(C)(C)OC(=O)N1CCN(c2ccc(NC(=O)Nc3ccccc3F)cc2)CC1 [Example 14, 4-{4-[3-(2-fluoro-phenyl)-ureido]-phenyl}-piperazine-1-carboxylic acid tert-butyl ester]	164 to 166
CC(C)(C)OC(=O)N1CCN(c2ccc(NC(=O)Nc3cc(Cl)ccc3NS(C)(=O)=O)cc2)CC1 [Example 12, 4-{4-[3-(5-chloro-2-methanesulfonylamino-phenyl)-ureido]-phenyl}-piperazine-1-carboxylic acid tert-butyl ester]	127
CC(C)(C)OC(=O)N1CCN(c2ccc(NC(=O)Nc3ccccc3[N+](=O)[O-])cc2)CC1 [Example 6, 4-{4-[3-(2-nitro-phenyl)-ureido]-phenyl}-piperazine-1-carboxylic acid tert-butyl ester]	207
CC(C)(C)OC(=O)N1CCN(c2ccc(NC(=O)Nc3ccccc3Cl)cc2)CC1 [Example 15, 4-{4-[3-(2-chloro-phenyl)-ureido]-phenyl}-piperazine-1-carboxylic acid tert-butyl ester]	196 to 197
Cc1ccc(C)c(NC(=O)Nc2ccc(N3CCN(C(=O)OC(C)(C)C)CC3)cc2)c1 [Example 19, 4-{4-[3-(2,5-dimethyl-phenyl)-ureido]-phenyl}-piperazine-1-carboxylic acid tert-butyl ester]	219 to 220
CCCCOc1ccc(NC(=O)Nc2ccc(N3CCN(C(=O)OC(C)(C)C)CC3)cc2)cc1 [Example 26, 4-{4-[3-(4-butoxy-phenyl)-ureido]-phenyl}-piperazine-1-carboxylic acid tert-butyl ester]	185 to 188

The next lines start with the values.

melting point [°C]	Structure (SMILES)
199 to 201	COc1ccc(C)cc1NC(=O)Nc1ccc(N2CCN(C(=O)Nc3ccc(Cl)cc3C)CC2)cc1 [Example 74, 4-{4-[3-(2-methoxy-5-methyl-phenyl)-ureido]-phenyl}-piperazine-1-carboxylic acid (4-chloro-2-methyl-phenyl)-amide]
201 to 203	COc1ccc(C)cc1NC(=O)Nc1ccc(N2CCN(C(=O)Nc3ccc(F)cc3F)CC2)cc1 [Example 72, 4-{4-[3-(2-methoxy-5-methyl-phenyl)-ureido]-phenyl)-piperazine-1-carboxylic acid (2,4-difluoro-phenyl)-amide]
184 to 186	COc1ccc(C)cc1NC(=O)Nc1ccc(N2CCN(Cc3ccccc3)CC2)cc1 [Example 191, 1-[4-(4-benzyl-piperazin-1-yl)-phenyl]-3-(2-methoxy-5-methyl-phenyl)-urea]
204 to 205	CCc1ccc(NC(=O)Nc2ccc(N3CCN(C(=O)OC(C)(C)C)CC3)cc2)cc1 [Example 24, 4-{4-[3-(4-ethyl-phenyl)-ureido]-phenyl}-piperazine-1-carboxylic acid tert-butyl ester]
200 to 201	COc1ccc(C)cc1NC(=O)Nc1ccc(N2CCN(C(=O)Nc3ccccc3F)CC2)cc1 [Example 52, 4-{4-[3-(2-methoxy-5-methyl-phenyl)-ureido]-phenyl}-piperazine-1-carboxylic acid (2-fluoro-phenyl)-amide]
136	COc1ccc(C)cc1NC(=O)Nc1ccc(N2CCN(C(N)=O)CC2)cc1 [Example 51, 4-{4-[3-(2-methoxy-5-methyl-phenyl)-ureido]-phenyl}-piperazine-1-carboxylic acid amide]
179	COc1ccc(C)cc1NC(=O)Nc1ccc(N2CCN(C(=O)Oc3ccccc3)CC2)cc1 [Example 47, 4-{4-[3-(2-methoxy-5-methyl-phenyl)-ureido]-phenyl}-piperazine-1-carboxylic acid phenyl ester]
165 to 167	COc1ccc(Cl)cc1NC(=O)Nc1ccc(N2CCN(C(=O)Nc3c(C)cccc3OC)CC2)cc1 [Example 182, 4-{4-[3-(5-chloro-2-methoxy-phenyl)-ureido]-phenyl}-piperazine-1-carboxylic acid (2-methoxy-6-methyl-phenyl)-amide]
199 to 200	COc1ccc(C)cc1NC(=O)Nc1ccc(N2CCN(C(=O)C(O)c3ncccc3C)CC2)cc1 (stereo not drawn) [Example 427, 1-(4-{4-[2-hydroxy-2-(3-methyl-pyridin-2-yl)-acetyl]-piperazin-1-yl}-phenyl)-3-(2-methoxy-5-methyl-phenyl)-urea]
201 to 202	CCC(C)c1ccc(NC(=O)Nc2ccc(N3CCN(C(=O)OC(C)(C)C)CC3)cc2)cc1 (stereo not drawn) [Example 25, 4-{4-[3-(4-sec-butyl-phenyl)-ureido]-phenyl}-piperazine-1-carboxylic acid tert-butyl ester]
228 to 230	COc1ccc(C)cc1NC(=O)Nc1ccc(N2CCN(C(=O)Nc3cccc(Cl)c3C)CC2)cc1 [Example 136, 4-{4-[3-(2-methoxy-5-methyl-phenyl)-ureido]-phenyl}-piperazine-1-carboxylic acid (3-chloro-2-methyl-phenyl)-amide]
217 to 219	COc1ccc(C)cc1NC(=O)Nc1ccc(N2CCN(C(=O)Nc3cccc(C)c3C)CC2)cc1 [Example 108, 4-{4-[3-(2-methoxy-5-methyl-phenyl)-ureido]-phenyl}-piperazine-1-carboxylic acid (2,3-dimethyl-phenyl)-amide]
169 to 171	COc1ccc(C)cc1NC(=O)Nc1ccc(N2CCN(C(=O)OC(C)(C)C)CC2)cc1C [Example 194, 4-{4-[3-(2-methoxy-5-methyl-phenyl)-ureido]-3-methyl-phenyl}-piperazine-1-carboxylic acid tert-butyl ester]
224	COc1ccc(C)cc1NC(=O)Nc1ccc(N2CCN(C(=O)NCc3ccccc3)CC2)cc1 [Example 50, 4-{4-[3-(2-methoxy-5-methyl-phenyl)-ureido]-phenyl}-piperazine-1-carboxylic acid benzylamide]
222	COc1ccc(C)cc1NC(=O)Nc1ccc(N2CCN(C(=O)C3CCCCC3)CC2)cc1 [Example 48, 1-[4-(4-cyclohexanecarbonyl-piperazin-1-yl)-phenyl]-3-(2-methoxy-5-methyl-phenyl)-urea]
126 to 128	COc1ccc(C)cc1NC(=O)Nc1ccc(N2CCN(C(=O)C3CC4CCC3C4)CC2)cc1 (stereo not drawn) [Example 189, 1-{4-[4-(bicyclo[2.2.1]heptane-2-carbonyl)-piperazin-1-yl]-phenyl}-3-(2-methoxy-5-methyl-phenyl)-urea]
208 to 209	COc1ccc(C)cc1NC(=O)Nc1ccc(N2CCN(C(=O)C3CCCCC3C)CC2)cc1 (stereo not drawn) [Example 190, 1-(2-methoxy-5-methyl-phenyl)-3-{4-[4-(2-methyl-cyclohexanecarbonyl)-piperazin-1-yl]-phenyl}-urea]
222 to 224	Cc1ccc(Cl)c(NC(=O)Nc2ccc(N3CCN(C(=O)OC(C)(C)C)CC3)cc2)c1 [Example 29, 4-{4-[3-(2-chloro-5-methyl-phenyl)-ureido]-phenyl}-piperazine-1-carboxylic acid tert-butyl ester]
168 to 169	CCOc1ccc(F)cc1NC(=O)Nc1ccc(N2CCN(C(=O)OC(C)(C)C)CC2)cc1 [Example 42, 4-{4-[3-(2-ethoxy-5-fluoro-phenyl)-ureido]-phenyl}-piperazine-1-carboxylic acid tert-butyl ester]
216 to 218	COc1ccc(C)cc1NC(=O)Nc1ccc2c(c1)C=CN(C(=O)Nc1c(C)cccc1Cl)C2 [Example 202, 6-[3-(2-methoxy-5-methyl-phenyl)-ureido]-3,4-dihydrido-1H-isoquinoline-2-carboxylic acid (2-chloro-6-methyl-phenyl)-amide]
185 to 186	COc1ccc(C)cc1NC(=O)Nc1ccc(N2CCN(C(=O)OC(C)(C)C)CC2)nc1 [Example 38, 4-{5-[3-(2-methoxy-5-methyl-phenyl)-ureido]-pyridin-2-yl}-piperazine-1-carboxylic acid tert-butyl ester]
